Reference: ChEMBL document CHEMBL3774345, “Synthesis of new diarylamides with pyrimidinyl pyridine scaffold and evaluation of their anti-proliferative effect on cancer cell lines” (Bioorg Med Chem Lett, 2016)

Key:
[1] = Cytotoxicity against human Hs 578T cells assessed as cell growth at 10^-6 M after 24 hrs by SRB assay; type: functional; conditions: read-out: Activity
[2] = Cytotoxicity against human UO31 cells assessed as cell growth at 10^-5 M after 24 hrs by SRB assay; type: functional; conditions: UO-31, 24 h, read-out: Activity
SN12C [3] = assay: Cytotoxicity against human SN12C cells assessed as cell growth at 10^-4 M after 24 hrs by SRB assay; type: functional; conditions: read-out: Activity
A498 = assay: Cytotoxicity against human A498 cells assessed as cell growth at 10^-8 M after 24 hrs by SRB assay; type: functional; conditions: A498, 24 h, read-out: Activity
HT-29 = assay: Cytotoxicity against human HT-29 cells assessed as cell growth at 10^-7 M after 24 hrs by SRB assay; type: functional; conditions: HT-29, 24 h, read-out: Activity
[4] = Cytotoxicity against human UACC257 cells assessed as cell growth at 10^-8 M after 24 hrs by SRB assay; type: functional; conditions: UACC-257, 24 h, read-out: Activity
EKVX [5] = assay: Cytotoxicity against human EKVX cells assessed as cell growth at 10^-6 M after 24 hrs by SRB assay; type: functional; conditions: read-out: Activity
[6] = Cytotoxicity against human OVCAR3 cells assessed as cell growth at 10^-4 M after 24 hrs by SRB assay; type: functional; conditions: OVCAR-3, 24 h, read-out: Activity
MDA-MB-231 = assay: Cytotoxicity against human MDA-MB-231 cells assessed as cell growth at 10^-5 M after 24 hrs by SRB assay; type: functional; conditions: MDA-MB-231, 24 h, read-out: Activity
SN12C [7] = assay: Cytotoxicity against human SN12C cells assessed as cell growth at 10^-7 M after 24 hrs by SRB assay; type: functional; conditions: read-out: Activity
[8] = Cytotoxicity against human RPMI8226 cells after 24 hrs by SRB assay; type: functional; conditions: RPMI-8226, 24 h
[9] = Cytotoxicity against human HCC2998 cells assessed as cell growth at 10^-8 M after 24 hrs by SRB assay; type: functional; conditions: HCC 2998, 24 h, read-out: Activity
[10] = Cytotoxicity against human OVCAR3 cells assessed as cell growth at 10^-7 M after 24 hrs by SRB assay; type: functional; conditions: OVCAR-3, 24 h, read-out: Activity
[11] = Cytotoxicity against human DU145 cells assessed as cell growth at 10^-7 M after 24 hrs by SRB assay; type: functional; conditions: DU-145, 24 h, read-out: Activity
[12] = Cytotoxicity against human SF295 cells assessed as cell growth at 10^-8 M after 24 hrs by SRB assay; type: functional; conditions: SF-295, 24 h, read-out: Activity
[13] = Cytotoxicity against human RPMI8226 cells assessed as cell growth at 10^-7 M after 24 hrs by SRB assay; type: functional; conditions: RPMI-8226, 24 h, read-out: Activity
[14] = Cytotoxicity against human OVCAR5 cells assessed as cell growth at 10^-4 M after 24 hrs by SRB assay; type: functional; conditions: OVCAR-5, 24 h, read-out: Activity
[15] = Cytotoxicity against human MOLT4 cells assessed as cell growth at 10^-8 M after 24 hrs by SRB assay; type: functional; conditions: MOLT-4, 24 h, read-out: Activity
[16] = Cytotoxicity against human SF268 cells assessed as cell growth at 10^-5 M after 24 hrs by SRB assay; type: functional; conditions: SF-268, 24 h, read-out: Activity
NCI-H322M = assay: Cytotoxicity against human NCI-H322M cells assessed as cell growth at 10^-6 M after 24 hrs by SRB assay; type: functional; conditions: read-out: Activity
KM12 = assay: Cytotoxicity against human KM12 cells assessed as cell growth at 10^-7 M after 24 hrs by SRB assay; type: functional; conditions: KM12, 24 h, read-out: Activity
[17] = Cytotoxicity against human UACC257 cells assessed as cell growth at 10^-6 M after 24 hrs by SRB assay; type: functional; conditions: UACC-257, 24 h, read-out: Activity
[18] = Cytotoxicity against human RPMI8226 cells assessed as cell growth at 10^-6 M after 24 hrs by SRB assay; type: functional; conditions: RPMI-8226, 24 h, read-out: Activity
[19] = Cytotoxicity against human SKOV3 cells assessed as cell growth at 10^-8 M after 24 hrs by SRB assay; type: functional; conditions: SK-OV-3, 24 h, read-out: Activity
[20] = Cytotoxicity against human COLO205 cells assessed as cell growth at 10^-5 M after 24 hrs by SRB assay; type: functional; conditions: COLO 205, 24 h, read-out: Activity
A549 = assay: Cytotoxicity against human A549 cells assessed as cell growth at 10^-4 M after 24 hrs by SRB assay; type: functional; conditions: A549, 24 h, read-out: Activity
CCRF-CEM = assay: Cytotoxicity against human CCRF-CEM cells assessed as cell growth at 10^-4 M after 24 hrs by SRB assay; type: functional; conditions: read-out: Activity
EKVX [21] = assay: Cytotoxicity against human EKVX cells assessed as cell growth at 10^-8 M after 24 hrs by SRB assay; type: functional; conditions: read-out: Activity
SN12C [22] = assay: Cytotoxicity against human SN12C cells assessed as cell growth at 10^-8 M after 24 hrs by SRB assay; type: functional; conditions: read-out: Activity
[23] = Cytotoxicity against human RXF393 cells after 24 hrs by SRB assay; type: functional, cell-based; conditions: RXF 393, 24 h
SK-MEL-2 = assay: Cytotoxicity against human SK-MEL-2 cells assessed as cell growth at 10^-4 M after 24 hrs by SRB assay; type: functional; conditions: SK-MEL-2, 24 h, read-out: Activity
[24] = Cytotoxicity against human DU145 cells assessed as cell growth at 10^-5 M after 24 hrs by SRB assay; type: functional; conditions: DU-145, 24 h, read-out: Activity
[25] = Cytotoxicity against human HOP62 cells after 24 hrs by SRB assay; type: functional; conditions: HOP-62, 24 h
[26] = Cytotoxicity against human SF268 cells after 24 hrs by SRB assay; type: functional; conditions: SF-268, 24 h
[27] = Cytotoxicity against human SNB19 cells assessed as cell growth at 10^-8 M after 24 hrs by SRB assay; type: functional; conditions: SNB-19, 24 h, read-out: Activity
[28] = Cytotoxicity against human OVCAR3 cells assessed as cell growth at 10^-5 M after 24 hrs by SRB assay; type: functional; conditions: OVCAR-3, 24 h, read-out: Activity
[29] = Cytotoxicity against human HL-60(TB) cells assessed as cell growth at 10^-5 M after 24 hrs by SRB assay; type: functional; conditions: HL-60, 24 h, read-out: Activity
[30] = read-out: LC50 (the source's name)
[31] = read-out: pLC50 (the source's name) (converted)

O=C(Nc1cc(-c2cccnc2)nc(NCCCN2CCOCC2)n1)c1cc(Br)cc(C(F)(F)F)c1
growth at 1 µM [1]: 94%
growth at 10 µM [2]: -61%
growth at 100 µM (SN12C [3]): -85%
growth at 0.01 µM (A498): 91%
growth at 0.1 µM (HT-29): 102%
growth at 0.01 µM [4]: 92%
growth at 1 µM (EKVX [5]): 76%
growth at 100 µM [6]: -100%
growth at 10 µM (MDA-MB-231): -59%
growth at 0.1 µM (SN12C [7]): 98%
GI50 ([8]; read-out: GI50): 3.15 µM
CC50 [8, 30]: > 100 µM
TGI ([8]; read-out: TGI): 9.69 µM
GI50 ([8]; read-out: pGI50 (converted)): 3.16 µM
CC50 [8, 31]: > 100 µM
TGI ([8]; read-out: pTGI (converted)): 9.77 µM
growth at 0.01 µM [9]: 96%
growth at 0.1 µM [10]: 102%
growth at 0.1 µM [11]: 105%
growth at 0.01 µM [12]: 97%
growth at 0.1 µM [13]: 104%
growth at 100 µM [14]: -67%
growth at 0.01 µM [15]: 99%
growth at 10 µM [16]: 1%
growth at 1 µM (NCI-H322M): 91%
growth at 0.1 µM (KM12): 99%
growth at 1 µM [17]: 113%
growth at 1 µM [18]: 101%
growth at 0.01 µM [19]: 97%
growth at 10 µM [20]: -79%
growth at 100 µM (A549): -95%
growth at 100 µM (CCRF-CEM): -52%
growth at 0.01 µM (EKVX [21]): 92%
growth at 0.01 µM (SN12C [22]): 95%
IC50 [23]: 1.8 µM
GI50 ([23]; read-out: GI50): 1.8 µM
CC50 [23, 30]: 7.23 µM
TGI ([23]; read-out: TGI): 3.61 µM
GI50 ([23]; read-out: pGI50 (converted)): 1.82 µM
CC50 [23, 31]: 7.24 µM
TGI ([23]; read-out: pTGI (converted)): 3.63 µM
growth at 100 µM (SK-MEL-2): -89%
growth at 10 µM [24]: 39%
GI50 ([25]; read-out: GI50): 2.71 µM
CC50 [25, 30]: 32.8 µM
TGI ([25]; read-out: TGI): 9.98 µM
GI50 ([25]; read-out: pGI50 (converted)): 2.69 µM
CC50 [25, 31]: 33.1 µM
TGI ([25]; read-out: pTGI (converted)): 10 µM
GI50 ([26]; read-out: GI50): 2.63 µM
CC50 [26, 30]: 37.8 µM
TGI ([26]; read-out: TGI): 10.4 µM
GI50 ([26]; read-out: pGI50 (converted)): 2.63 µM
CC50 [26, 31]: 38 µM
TGI ([26]; read-out: pTGI (converted)): 10.5 µM
growth at 0.01 µM [27]: 97%
growth at 10 µM [28]: 12%
growth at 10 µM [29]: -27%
